# Results reported in US20220259172A1, “CHEMICAL INHIBITORS OF ID PROTEINS FOR THE TREATMENT OF CANCER AND OTHER DISEASES” (Universität Heidelberg, priority 2019, published 2022).
# What was measured:
# HUVECs = test: HUVEC proliferation, CyQUANT assay; format: cell-based, Human; settings: dose-dependent manner (FIG. 11)
# Method: (§1) HUVECs (A) and LECs (B) were cultivated in endothelial cell growth medium. Cells were incubated with the indicated concentrations of X6632. Incubation with DMSO served as a solvent control. After cultivation for the indicated time periods, cells were stained with a CyQUANT™ Cell Proliferation Assay Kit (Thermo Fisher Scientific). The CyQUANT™ dye emits fluorescence after excitation at 485 nm when incorporated in double-stranded DNA, allowing DNA content to be used as a measure of cell numbers. Plates were incubated for 15 min at 37° C. to allow the CyQUANT™ dye to incorporate into DNA. Fluorescence was measured by excitation at 485 nm and detection of emission at 530 nm at 25 positions in each well (signal intensity) using a Tecan Infinite M200 reader.
# LECs = test: LEC proliferation, CyQUANT assay; format: cell-based; settings: dose-dependent manner (FIG. 11)
# Method: as §1
# Id3 = test: Compound screen: BMP4-induced Id3 expression, Western blot; format: cell-based, murine; settings: B16-F10 and Ret cells, BMP4 10 ng/ml and compound simultaneously, 24 h, rated relative to CBD
# Method: (§2) To screen compounds with an inhibitory effect on Id1 and Id3 expression, cells were simultaneously stimulated with BMP4 (10 ng/ml, 315-27, Peprotech) and substances at the indicated concentrations for 24 h. DMSO served as a solvent control. Effects on Id1 and Id3 expression levels were analysed by Western blotting.
# (§3) Western blot analysis was performed using standard methods. The following antibodies were used for protein detection: Id1 (195-14, CalBioreagents), Id3 (17-3, CalBioreagents), β-actin (AC-15, Sigma Aldrich), Vinculin (VIN-11-5, Sigma Aldrich). Protein bands were detected using HRP conjugated secondary antibodies (P0447, P0448, Agilent Technologies) and enhanced chemiluminescence (32106, Thermo Fisher Scientific).
# (§4) B16-F10 and Ret melanoma cells were treated with BMP4 to induce Id1 and Id3 expression, and simultaneously treated with each of the compounds individually for a 24 h period.
# LEC spheroids = test: Sprouting from LEC spheroids in collagen; format: cell-based; settings: X6632 10 μM; 50 ng/ml hVEGF-A; 24 h; collagen type I
# Method: HUVECs or LECs were resuspended in endothelial cell growth medium containing 20% methylcellulose at 1.6×10^4 cells per millilitre. Twenty-five microliters of cell suspension were pipetted as drops on non-adherent plastic plates, which were then inverted to form hanging drop cultures. Plates were incubated for 24 h at 37° C. Spheroids were harvested, then embedded in collagen type I (2 mg/ml) containing 0.5% methylcellulose. After polymerization, gels were cultivated with endothelial cell growth medium containing 50 ng/ml hVEGF-A in the presence or absence of X6632 (10 μM), or DMSO as a solvent control. Sprouting was assessed after cultivation for 24 h using microscope-based image acquisition. Representative images are shown.
# To determine whether this is the case, the impact of […] on angiogenic and lymphangiogenic sprouting from endothelial cell spheriods was investigated. To this end, HUVECs and LECs were grown as spheriods in hanging drop cultures. The spheroids were then embedded in collagen. Sprouting from the spheroids in the presence and absence of X6632 was monitored using microscope-based image analysis.
# Id1 [1] = test: Compound screen: BMP4-induced Id1 expression, Western blot; format: cell-based, murine; settings: B16-F10 and Ret cells, BMP4 10 ng/ml and compound simultaneously, 24 h, rated relative to CBD
# Method: as §2, §3, §4
# Id1 [2] = test: Id1 expression in LECs, Western blot; format: cell-based; settings: indicated concentrations, 24 hours (FIG. 10B)
# Method: Human umbilical vein endothelial cells (HUVECs) and lymphatic endothelial cells (LECs) were cultivated in EBM™-2 Endothelial Cell Growth Basal Medium supplemented with EGM™-2 MV Microvascular Endothelial Cell Growth Medium-2 SingleQuots™ Kit (both Lonza, catalogue numbers CC-3156 and CC4176, respectively), hereafter referred to as endothelial cell growth medium. HUVECs and LECs were cultivated in the presence of the indicated concentrations of X6632, or with DMSO as a solvent control. After 24 hours, cells were harvested. Lysates were western blotted and probed with antibodies against Id1 and Id3. Western blots probed with vinculin antibodies served as loading controls.
# as §3
# The effect of X6632 on Id1 and Id3 expression in cultivated proliferating human umbilical vein endothelial cells (HUVECs) was investigated. […] LDN-193189, an antagonist of BMP receptor isotypes ALK2 and ALK3, served as a positive control reference for inhibition of Id1 and Id3 expression.
structure (smiles),measurement,setting,value
"CCCCc1cc2c(O)cc(C3(CCCC)CCCCC3)cc2oc1=O [X6632, 7-(1-Butylcyclohexyl)-5-hydroxy-3-butyl-2H-chromen-2-one]",Proliferation of HUVECs,HUVECs,inhibited
same,Proliferation of LECs,LECs,inhibited
same,Inhibitory effect on Id3 protein expression,Id3,more potent
same,Inhibitory effect on Id3 protein expression,Id3; listed as X 6632,strongest inhibitory activities
same,Sprouting from LEC spheroids,LEC spheroids,substantially inhibited
same,Inhibitory effect on Id1 protein expression,Id1 [1],more potent
same,Inhibitory effect on Id1 protein expression,Id1 [1]; listed as X 6632,strongest inhibitory activities
same,Expression of Id1 protein,Id1 [2],inhibits
